Assay results reported in US4999444A, “Novel neutral mixed ligand platinum(II) and platinum(IV) complexes” (Warner-Lambert Co., priority 1989, dated 1991).
Where two headings read alike, the source gives them in different places.

Columns and labels:
[1] = system: P388S; assay: In vitro cytotoxicity (ID50, 72 h growth inhibition), P388S; type: cell-based, murine
Procedure: (§1) ID50 values are the concentration of complex required to inhibit the in vitro growth of treated cells to a level of 50% of that for untreated cells over a 72-hour period. The cell lines are suspended in appropriate media at a concentration which results in the cells remaining in log phase growth throughout the treatment period. Serially diluted drug is added to duplicate wells containing the cell growth. After 72 hours of incubation of the cell lines in 5% CO2, the cells are counted and the ID50 values determined.

[2] = system: P388Pt4; assay: In vitro cytotoxicity (ID50, 72 h growth inhibition), P388Pt4; type: cell-based, murine; conditions: for ID50: in vitro, 72 h
Procedure: as §1
(§2) Resistance ratio values shown in Table 1 were calculated by dividing the ID50 values against the resistant cell lines by the ID50 values against the normal cell lines. The resistance ratio values shown in the table indicate a measure of the degree of resistance of the cell line to a particular drug.

[3] = system: L1210S; assay: In vitro cytotoxicity (ID50, 72 h growth inhibition), L1210S; type: cell-based, murine
Procedure: as §1

[4] = system: P-388/Pt (Cisplatin Resistant); assay: In vivo antitumor activity, P-388 (Lymphocytic Leukemia), P-388/Pt (Cisplatin Resistant); parameters: species or system mice (murine leukemia); conditions: IP, Days 1, 5, 9; for % T/C: best responses
Text: (§3) The screening tests employing these cell lines are described in Geran et al., "Protocols for Screening Chemical Agents and Natural Products Against Animal Tumors and Other Biological Systems," Cancer Chemotherapy Reports, Part 3, Vol. 3, No. 2, pages 1-85 (1972). The L1210 and P388 screening methods have been cited as the best tools for predicting clinical utility of drugs in the treatment of human solid tumors as well as human leukemias and lymphomas (Venditti, "Relevance of Transplantable Animal-Tumor Systems to the Selection of New Agents for Clinical Trial," Pharmacological Basis of Cancer Chemotherapy, […] Pub. Co. (1975)).
^g Schedule: Days 1, 5, 9

[5] = system: L1210DACH; assay: In vitro cytotoxicity (ID50, 72 h growth inhibition), L1210DACH (Pt(DACH)Cl2-resistant L1210); type: cell-based, murine; conditions: for ID50: in vitro, 72 h
Procedure: as §1, §2

[6] = system: L1210DDP5; assay: In vitro cytotoxicity (ID50, 72 h growth inhibition), L1210DDP5; type: cell-based, murine; conditions: for ID50: in vitro, 72 h
Procedure: as §1, §2

[7] = system: L-1210/Pt Leukemia (Cisplatin Resistant); assay: In vivo antitumor activity in mice, L-1210/Pt Leukemia (Cisplatin Resistant); parameters: species or system mice (murine leukemia); conditions: IP, Days 3, 7, 11; for % T/C: best responses
[8] = system: L1210PtR4; assay: In vitro cytotoxicity (ID50, 72 h growth inhibition), L1210PtR4; type: cell-based, murine; conditions: for ID50: in vitro, 72 h
Procedure: as §1, §2

[9] = system: L-1210 Leukemia; assay: In vivo antitumor activity in mice, L-1210 Leukemia; parameters: species or system mice (murine leukemia); conditions: IP, Days 3, 7, 11; for % T/C: best responses
Text: as §3
In Table 2, the ratio of median survival time of laboratory mice which had been treated with the test compound to untreated control animals is expressed as a percentage (%T/C values). […] Data for the prior art complex cisplatin is included for comparison.
^a Inoculum: 10,000 cells (IP)
^b Schedule: Days 3, 7, 11

[10] = system: L1210 and P388 murine leukemia cell lines; assay: Antitumor activity in L1210 and P388 murine leukemia, in vitro and in vivo; conditions: in vitro and in vivo test results
Procedure: as §1, §3
In Table 2, the ratio of median survival time of laboratory mice which had been treated with the test compound to untreated control animals is expressed as a percentage (%T/C values). […]

[11] = system: cisplatin-resistant cells; assay: Activity against cisplatin-resistant cells in vitro and in vivo; parameters: species or system murine
Procedure: as §1, §2
(§4) In Table 2, the ratio of median survival time of laboratory mice which had been treated with the test compound to untreated control animals is expressed as a percentage (%T/C values). Laboratory mice were implanted intraperitonealy with the L1210 murine leukemia cell line on Day 0 and treated with intraperitoneal injections of representative platinum complexes of the present invention on Days 3 and 7 at the dosages indicated. Data for the prior art complex cisplatin is included for comparison.

[12] = system: parent L1210 and P388 leukemia cell lines; assay: In vivo activity against parent L1210 and P388 leukemia; parameters: species or system mice (murine leukemia)
Text: as §3, §4

[13] = first pair of lines, 5.0 mg/kg/injection
[14] = second pair of lines, 5.0 mg/kg/injection
[15] = ID50 resistant line / ID50 normal line, 4320 min
[16] = first pair of lines, 3.7 mg/kg/injection
[17] = second pair of lines, 3.7 mg/kg/injection

## N.N.[Cl][Pt][Cl] [Cisplatin, cis-diaminedichloroplatinum(II), reference compound]
[1]
  ID50: 0.128 µg/mL
[2]
  ID50: 10.0 µg/mL
[3]
  ID50: 0.375 µg/mL
[4]; [13]
  Log10 Kill Net: 6.8
  % T/C: 261%
[4]; [14]
  Log10 Kill Net: -1.5
  % T/C: 132%
[5]; L1210DACH
  ID50: 0.52 µg/mL
[6]
  ID50: 4.11 µg/mL
[7]; 4.0 mg/kg/injection
  60 Day Survivors: 0/6
  Log10 Kill Gross: 0.7
  Log10 Kill Net: -2.5
  MLS (median life span): 11.1 days
  % T/C: 109%
[7]; 6.0 mg/kg/injection
  60 Day Survivors: 0/6
  Log10 Kill Gross: 1.5
  Log10 Kill Net: -2.4
  MLS (median life span): 12.0 days
  Weight Change: -3.7 grams
  % T/C: 118%
[8]
  ID50: 7.84 µg/mL
[9]; 4.0 mg/kg/injection
  60 Day Survivors: 1/6
  Log10 Kill Gross: 9.4
  Log10 Kill Net: 0.9
  MLS (median life span): 19.5 days
  Weight Change: 1.0 grams
  % T/C: 184%
[9]; 6.0 mg/kg/injection
  60 Day Survivors: 1/6
  Log10 Kill Gross: 8.3
  Log10 Kill Net: -0.1
  MLS (median life span): 18.5 days
  Weight Change: -1.9 grams
  % T/C: 175%

## [Cl][Pt]1([Cl])[NH]C2CCC(CC2)[NH]1 [Example 1, [SP-4-2-(c-is)]-Dichloro(1,4-cyclohexanediamine-N,N')-platinum]
[1]
  ID50: 0.047 µg/mL
[2]; [15]
  Fold resistance (resistance ratio): 30 fold
[2]
  ID50: 1.43 µg/mL
[10]
  antitumor activity, potency and response vs cisplatin: superior to cisplatin both in potency and response
[3]
  ID50: 0.248 µg/mL
[11]
  cross resistance to cisplatin: some degree of cross resistance to cisplatin
  effectiveness against cisplatin-resistant cells vs cisplatin: more effective than cisplatin
[4]; [16]
  Log10 Kill Net: 5.4
  % T/C: 234%
[4]; [17]
  Log10 Kill Net: 1.9
  % T/C: 177%
[5]
  cross resistance to Pt(DACH)Cl2-resistant L1210 cells in culture: four
[5]; ID50 resistant line / ID50 normal line, L1210DACH, 4320 min
  Fold resistance (resistance ratio): 4.3 fold
[5]; L1210DACH
  ID50: 1.08 µg/mL
[6]; [15]
  Fold resistance (resistance ratio): 2.7 fold
[6]
  ID50: 0.663 µg/mL
[7]; 0.8 mg/kg/injection
  60 Day Survivors: 0/6
  Log10 Kill Gross: 2.1
  Log10 Kill Net: -2.2
  MLS (median life span): 12.8 days
  % T/C: 126%
[7]; 1.5 mg/kg/injection
  60 Day Survivors: 0/6
  Log10 Kill Gross: 4.5
  Log10 Kill Net: -1.7
  MLS (median life span): 15.7 days
  % T/C: 154%
[7]; 3.0 mg/kg/injection
  60 Day Survivors: 2/6
  Log10 Kill Gross: 5.5
  Log10 Kill Net: -1.0
  MLS (median life span): 17.0 days
  % T/C: 167%
[7]; 6.3 mg/kg/injection
  60 Day Survivors: 0/6
  Log10 Kill Gross: 0.1
  Log10 Kill Net: -2.7
  MLS (median life span): 10.3 days
  % T/C: 101%
[12]
  effectiveness against parent L1210 and P388 leukemia in vivo vs cisplatin: equally effective or superior to cisplatin
[8]; [15]
  Fold resistance (resistance ratio): 4.9 fold
[8]
  ID50: 1.21 µg/mL
[9]; 0.8 mg/kg/injection
  60 Day Survivors: 0/6
  Log10 Kill Gross: 3.4
  Log10 Kill Net: -1.5
  MLS (median life span): 13.0 days
  % T/C: 130%
[9]; 1.5 mg/kg/injection
  60 Day Survivors: 0/6
  Log10 Kill Gross: 13.1
  Log10 Kill Net: 4.6
  MLS (median life span): 23.0 days
  % T/C: 217%
[9]; 3.0 mg/kg/injection
  60 Day Survivors: 1/6
  Log10 Kill Gross: 11.5
  Log10 Kill Net: 3.1
  MLS (median life span): 21.5 days
  % T/C: 203%
[9]; 6.3 mg/kg/injection
  60 Day Survivors: 0/6
  Log10 Kill Gross: 0.1
  Log10 Kill Net: -1.9
  MLS (median life span): 10.7 days
  % T/C: 101%

## NC1CCCCC1N.[Cl][Pt][Cl] (stereo not drawn) [[Pt(trans-l-DACH)Cl2], [SP-4-2-(1R-trans)]-dichloro(1,2-cyclohexanediamine-N,N')platinum, reference compound]
[1]
  ID50: 0.077 µg/mL
[2]
  ID50: 0.83 µg/mL
[3]
  ID50: 0.059 µg/mL
[5]; 4320 min
  cross resistance to Pt(DACH)Cl2-resistant L1210 cells in culture: 77 fold
[5]; L1210DACH
  ID50: 4.57 µg/mL
[6]
  ID50: 0.164 µg/mL
[8]
  ID50: 0.161 µg/mL
